# ChEMBL document CHEMBL1201862, “PubChem BioAssay data set” (2004)
#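 1) Cells in 96-well plates. 2) Compound, 48 h, 5 concentrations. 3) Linear interpolation between surrounding doses. 4) Unreached endpoint = highest concentration. GI50 is the concentration that inhibits growth by half.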 Activity calls are given as the source filed them. Rule as the data show it: active = GI50 up to about 1.1 µM and inactive = higher.
# Columns and labels:
# Test in all cases: NCI anticancer screen, dose series, 48 h
# [1] = test system: HCC 2998
# [2] = test system: SF-268
# [3] = test system: HOP-92
# [4] = test system: CAKI-1
# [5] = test system: OVCAR-3
# [6] = test system: SK-MEL-5
# [7] = test system: KM12
# [8] = test system: DMS-273
# [9] = test system: RXF 631
# [10] = test system: A549
# [11] = test system: K562
# [12] = test system: OVCAR-8
# [13] = test system: LOX IMVI
# [14] = test system: NCI-H460
# [15] = test system: HT-29
# [16] = test system: A498
# [17] = test system: SN12C
# [18] = test system: UACC-62
# [19] = test system: M14
# [20] = test system: NCI-H23
# [21] = test system: M19-MEL
# [22] = test system: NCI-H522
# [23] = test system: SNB-78
# [24] = test system: TK-10
# [25] = test system: ACHN
# [26] = test system: SW-620
# [27] = test system: 786-0
# [28] = test system: U-251
# [29] = test system: EKVX
# [30] = test system: HCT-116
# [31] = test system: UACC-257
# [32] = test system: HCT-15
# [33] = test system: SR
# [34] = test system: LXFL 529
# [35] = test system: MOLT-4
# [36] = test system: SK-OV-3
# [37] = test system: RPMI-8226
# [38] = test system: SNB-19
# [39] = test system: XF498
# [40] = test system: OVCAR-5
# [41] = test system: HOP-18
# [42] = test system: SNB-75
# [43] = test system: SF-539
# [44] = test system: SK-MEL-28
# [45] = test system: SF-295
# [46] = test system: CCRF-CEM
# [47] = test system: IGROV-1
# [48] = test system: HL-60
# [49] = test system: OVCAR-4
# [50] = test system: UO-31
# [51] = test system: HOP-62
# [52] = test system: KM-20L2
# [53] = test system: DLD-1
# [54] = test system: COLO 205
# [55] = test system: RXF 393
# [56] = test system: Malme-3M
# [57] = test system: SK-MEL-2
smiles,measurement,setting,value
COC(=O)C12CC3CC(CC(C(=O)O)(C3)C1)C2,GI50,[1],> 100 µM (inactive)
same,GI50,[2],> 100 µM (inactive)
same,GI50,[3],> 100 µM (inactive)
same,GI50,[4],> 100 µM (inactive)
same,GI50,[5],> 100 µM (inactive)
same,GI50,[6],> 100 µM (inactive)
same,GI50,[7],> 100 µM (inactive)
same,GI50,[8],> 100 µM (inactive)
same,GI50,[9],> 100 µM (inactive)
same,GI50,[10],> 100 µM (inactive)
same,GI50,[11],> 100 µM (inactive)
same,GI50,[12],> 100 µM (inactive)
same,GI50,[13],> 100 µM (inactive)
same,GI50,[14],> 100 µM (inactive)
same,GI50,[15],> 100 µM (inactive)
same,GI50,[16],> 100 µM (inactive)
same,GI50,[17],> 100 µM (inactive)
same,GI50,[18],> 100 µM (inactive)
same,GI50,[19],> 100 µM (inactive)
same,GI50,[20],> 100 µM (inactive)
same,GI50,[21],> 100 µM (inactive)
same,GI50,[22],> 100 µM (inactive)
same,GI50,[23],> 100 µM (inactive)
same,GI50,[24],> 100 µM (inactive)
same,GI50,[25],> 100 µM (inactive)
same,GI50,[26],> 100 µM (inactive)
same,GI50,[27],> 100 µM (inactive)
same,GI50,[28],> 100 µM (inactive)
same,GI50,[29],> 100 µM (inactive)
same,GI50,[30],> 100 µM (inactive)
same,GI50,[31],> 100 µM (inactive)
same,GI50,[32],> 100 µM
same,GI50,[33],> 100 µM (inactive)
same,GI50,[34],> 100 µM (inactive)
same,GI50,[35],> 100 µM (inactive)
same,GI50,[36],> 100 µM (inactive)
same,GI50,[37],> 100 µM (inactive)
same,GI50,[38],> 100 µM (inactive)
same,GI50,[39],> 100 µM (inactive)
same,GI50,[40],> 100 µM (inactive)
same,GI50,[41],> 100 µM (inactive)
same,GI50,[42],> 100 µM (inactive)
same,GI50,[43],> 100 µM (inactive)
same,GI50,[44],> 100 µM (inactive)
same,GI50,[45],> 100 µM (inactive)
same,GI50,[46],> 100 µM (inactive)
same,GI50,[47],> 100 µM (inactive)
same,GI50,[48],> 100 µM (inactive)
same,GI50,[49],> 100 µM (inactive)
same,GI50,[50],> 100 µM (inactive)
same,GI50,[51],> 100 µM (inactive)
same,GI50,[52],> 100 µM (inactive)
c1ccc2c(c1)CCC/C2=N\OCC1CO1 (stereo unspecified),GI50,[1],> 100 µM (inactive)
same,GI50,[2],52.4 µM (inactive)
same,GI50,[3],5.77 µM (inactive)
same,GI50,[4],36.1 µM (inactive)
same,GI50,[5],> 100 µM (inactive)
same,GI50,[6],> 100 µM (inactive)
same,GI50,[7],> 100 µM (inactive)
same,GI50,[8],> 100 µM (inactive)
same,GI50,[9],> 100 µM (inactive)
same,GI50,[10],> 100 µM (inactive)
same,GI50,[11],43.8 µM (inactive)
same,GI50,[12],81.7 µM (inactive)
same,GI50,[13],36.3 µM (inactive)
same,GI50,[14],> 100 µM (inactive)
same,GI50,[15],98.4 µM (inactive)
same,GI50,[16],82 µM (inactive)
same,GI50,[17],> 100 µM (inactive)
same,GI50,[18],58.6 µM (inactive)
same,GI50,[53],73.3 µM (inactive)
same,GI50,[19],80.9 µM (inactive)
same,GI50,[20],80 µM (inactive)
same,GI50,[21],> 100 µM (inactive)
same,GI50,[54],> 100 µM (inactive)
same,GI50,[23],> 100 µM (inactive)
same,GI50,[24],> 100 µM (inactive)
same,GI50,[25],68.4 µM (inactive)
same,GI50,[26],92.9 µM (inactive)
same,GI50,[27],> 100 µM (inactive)
same,GI50,[28],> 100 µM (inactive)
same,GI50,[29],> 100 µM (inactive)
same,GI50,[30],47.2 µM (inactive)
same,GI50,[31],> 100 µM (inactive)
same,GI50,[32],> 100 µM
same,GI50,[34],64.3 µM (inactive)
same,GI50,[35],49.3 µM (inactive)
same,GI50,[36],> 100 µM (inactive)
same,GI50,[37],55.1 µM (inactive)
same,GI50,[55],31.8 µM (inactive)
same,GI50,[38],> 100 µM (inactive)
same,GI50,[39],37.6 µM (inactive)
same,GI50,[40],> 100 µM (inactive)
same,GI50,[41],66.2 µM (inactive)
same,GI50,[56],> 100 µM (inactive)
same,GI50,[57],61.2 µM (inactive)
same,GI50,[42],> 100 µM (inactive)
same,GI50,[43],> 100 µM (inactive)
same,GI50,[45],70.1 µM (inactive)
same,GI50,[46],23.2 µM (inactive)
same,GI50,[47],> 100 µM (inactive)
same,GI50,[48],28.4 µM (inactive)
same,GI50,[49],> 100 µM (inactive)
same,GI50,[50],38.6 µM (inactive)
same,GI50,[51],> 100 µM (inactive)
same,GI50,[52],> 100 µM (inactive)
